Patent publication US8304452B2, “Radical scavenger and active oxygen eliminating agent” (InBiotex Inc., priority 2005, dated 2012)

Test system: human LDL
Assay: Lipid peroxide-suppressing action: CuSO4-induced LDL oxidation, TBARS assay (Example 1)
Type: biochemical
Details: for Amount of TBARS: 0.2 mg/mL LDL + 5 μM CuSO4, 37° C., 3 hours, mean, n=2
Procedure: As an action of capturing free group (free radical-scavenging action), the effect of N-β-alanyl-5-S-glutathionyl-3,4-dihydroxyphenylalanine (5-S-GAD) on LDL oxidation was examined. As controls, dopamine and Carnosine (under trade name; N-acetylcarnosine as the ingredient name) used as eye drops for cataract were used. LDL was prepared by a fractionation and centrifugation method. A fraction at a specific gravity of 1.019 to 1.063 g/mL in serum was defined as human LDL. 5 μM CuSO4, 5-S-GAD (3 to 100 μM) and N-acetyl-carnosine (100 μM to 10 mM) or L-carnosine (10 μM to 10 mM) were added to 0.2 mg/mL LDL, for incubation at 37° C. for 3 hours. After termination of the incubation, TBARS (a substance reactive with thiobarbituric acid) was assayed. Although the TBA reaction is a non-specific reaction, the reaction is used for a method of assaying various lipid peroxide products including malone dialdehyde. An experiment of peroxidation with copper sulfate was done twice (N=2). An aqueous solution containing 3.75 mg/mL thiobarbituric acid (TBA), 150 mg/mL trichloroacetic acid (TCA) and 0.25 N hydrochloric acid (HCl) was prepared as the TBA reagent, while tetramethoxypropane was used to prepare standard solutions (2, 5, 10, 20, 40 μM). 100 μL each of an LDL sample or a standard solution was added together with 200 μL of the TBA reagent into an Eppendorf tube (1.5 mL), which was then sealed with a cap for thorough mixing. After heating at 95° C. for 15 minutes, the resulting mixture was cooled in water and centrifuged at 3000 rpm for 5 minutes. The supernatant was assayed of the absorbance (535 nm). Based on the absorbance of the standard solutions, a standard curve was prepared. Based on the standard curve, the amount of TBARS in the LDL sample was calculated (in nmol/mg LDL protein) (mean, n=2, see Table 1 and FIG. 1).

Compound: NCCC(=O)N[C@@H](Cc1cc(O)c(O)c(SC[C@H](NC(=O)CC[C@H](N)C(=O)O)C(=O)NCC(=O)O)c1)C(=O)O [5-S-GAD, N-β-alanyl-5-S-glutathionyl-3,4-dihydroxyphenylalanine]
- Amount of TBARS (10 μM added): 85.683 nmol/mg LDL protein
- Amount of TBARS (30 μM added): 4.290 nmol/mg LDL protein
- Amount of TBARS (100 μM added): 2.649 nmol/mg LDL protein
- anti-oxidation action, level relative to Carnosine (under trade name) (LDL oxidation, TBARS): 10 fold
- anti-oxidation action, level relative to dopamine (LDL oxidation, TBARS): the same level as that of dopamine
